From EP2465840A1, “Terpene ether” (CABB GmbH, priority 2010, dated 2012)
Entries after “also recorded” stand apart in the source; their conditions may differ.

Columns and labels:
Format in all cases: physicochemical
[1] = Brookfield viscosity (25°C) of cleaning formulation 24 h after addition of terpene ether
Protocol: Im Rahmen der vorliegenden Erfindung wird die Brookfield-Viskosität einer wässrigen Zusammensetzung vorzugsweise mittels einem RTV Brookfield-Viskosimeter bei 25°C ermittelt, besonders bevorzugt mit einer Spindel # 3 oder # 4.
Die in Tabelle 1 angegebene Reinigungsformulierung wurde untersucht. Tabelle 1: Reinigungsformulierung (WAS 15 %)
Zu dieser Formulierung wurden NP 1 oder NP 27 gegeben. Die gemessenen Brookfield-Viskositätswerte nach 24 Stunden werden in Tabelle 2 und 3 zusammengefasst. Tabelle 2: Brookfield-Viskosität (25°C)
Zu dieser Formulierung wurden NP 1 oder NP 27 sowie danach Natriumchlorid gegeben. Die gemessenen Brookfield-Viskositätswerte nach 24 Stunden werden in den folgenden Tabellen zusammengefasst. Tabelle 13: Brookfield-Viskosität (25°C)

[2] = Appearance of cleaning formulation after 24 h
[3] = pH of cleaning formulation after addition of terpene ether
[4] = Foam height and foam stability of formulation; conditions: Reinigungsformulierung enthaltend Dinatriumlaurylsuccinat (wässrig); for h1: Schaumhöhe 5 Minuten nach dem Mischen; for h1 / h0: Lösung mit 0,5 % WAS; for h0: Schaumhöhe eine Minute nach dem Mischen; for Stabilität: Schaumstabilität (h1/h0)*100
Protocol: Die Schaumhöhe der Formulierungen wurde nach folgender Methode ermittelt: In einem 400 ml Becher wurden 100 g einer wässrigen Lösung mit 0,5 % WAS hergestellt. Für eine Minute wurde die Lösung bei […] runden […] wurde die […] Minute […]0) und 5 […]. Die Schaumstabilität in % ergibt sich dann über (h1/h0)*100.

[5] = Visual evaluation of foam (foam appearance, bubble size); parameters: key to Blasengröße nach 1 min. / Blasengröße nach 5 min.: klein (1); mittel (2); mittel-groß (3); groß (4); sehr groß (5); key to Aussehen des Schaums nach 1 min. / Aussehen des Schaums nach 5 min.: verschwindend (1); locker (2); mittelkompakt (3); sehr kompakt (4); conditions: Reinigungsformulierung enthaltend Dinatriumlaurylsuccinat (wässrig)
Protocol: Die Qualität des Schaums wurde visuell nach der folgenden Methode festgestellt: 100 g der Lösung mit 0,5 % WAS wurden in einen 250 ml Glaszylinder mit Schraubverschluss und einem Innendurchmesser von 35 mm überführt. Der Zylinder wurde 10 mal gedreht und die Blasengröße und die Schaumkompaktheit wurden nach einer Minute nach dem Mischen und nach 5 Minuten ermittelt. Dabei erfolgte die Beurteilung auf der Grundlage der folgenden beschreibenden Parameter:
Aussehen des Schaums: verschwindend (1), locker (2), mittelkompakt (3), sehr kompakt (4)
Blasengröße: klein (1), mittel (2), mittel-groß (3), groß (4), sehr groß (5) Tabelle 4: […]

[6] = Reinigungsformulierung enthaltend Coco Glucosid, +0,5 %
[7] = Reinigungsformulierung enthaltend Coco Glucosid, +1 %
[8] = Reinigungsformulierung enthaltend Coco Glucosid, +5 %
[9] = Reinigungsformulierung enthaltend Dinatriumlaurylsuccinat (wässrig), +0,5 %, nach 24 Stunden
[10] = Reinigungsformulierung enthaltend Dinatriumlaurylsuccinat (wässrig), +1 %, nach 24 Stunden
[11] = Reinigungsformulierung enthaltend Dinatriumlaurylsuccinat (wässrig), +5 %, nach 24 Stunden
[12] = Reinigungsformulierung enthaltend Natriumlaurylethersulfat, Dinatriumcocoamphodiacetat, 0,5 % NaCl, +0,5 %, nach 24 Stunden
[13] = Reinigungsformulierung enthaltend Natriumlaurylethersulfat, Dinatriumcocoamphodiacetat, 0,5 % NaCl, +0,25 %, nach 24 Stunden
[14] = Reinigungsformulierung enthaltend Natriumlaurylethersulfat, Dinatriumcocoamphodiacetat, 0,5 % NaCl, +1 %, nach 24 Stunden
[15] = Reinigungsformulierung enthaltend Natriumlaurylethersulfat, Dinatriumcocoamphodiacetat, 0,5 % NaCl, +2 %, nach 24 Stunden
[16] = Reinigungsformulierung enthaltend Natriumlaurylethersulfat, Dinatriumcocoamphodiacetat, 1 % NaCl, +0,5 %, nach 24 Stunden
[17] = Reinigungsformulierung enthaltend Natriumlaurylethersulfat, Dinatriumcocoamphodiacetat, 1 % NaCl, +0,25 %, nach 24 Stunden
[18] = Reinigungsformulierung enthaltend Natriumlaurylethersulfat, Dinatriumcocoamphodiacetat, 1 % NaCl, +1 %, nach 24 Stunden
[19] = Reinigungsformulierung enthaltend Natriumlaurylethersulfat, Dinatriumcocoamphodiacetat, 1 % NaCl, +2 %, nach 24 Stunden
[20] = Reinigungsformulierung enthaltend Natriumlaurylethersulfat, Dinatriumcocoamphodiacetat, +0,5 %, nach 24 Stunden
[21] = Reinigungsformulierung enthaltend Natriumlaurylethersulfat, Dinatriumcocoamphodiacetat, +0,25 %, nach 24 Stunden
[22] = Reinigungsformulierung enthaltend Natriumlaurylethersulfat, Dinatriumcocoamphodiacetat, +1 %, nach 24 Stunden
[23] = Reinigungsformulierung enthaltend Natriumlaurylethersulfat, Dinatriumcocoamphodiacetat, +2 %, nach 24 Stunden
[24] = Reinigungsformulierung enthaltend Dinatriumlaurylsuccinat (wässrig), +0,5 %
[25] = Reinigungsformulierung enthaltend Dinatriumlaurylsuccinat (wässrig), +1 %
[26] = Reinigungsformulierung enthaltend Dinatriumlaurylsuccinat (wässrig), +5 %

## CC1(C)C2CCC1(C)C(OCC1COC(=O)O1)C2 (stereo not drawn) [NP 27]
[1]; [6]
  BF-Viskosität (2,5 rpm): 16400 mPas
  BF-Viskosität (5 rpm): 15800 mPas
[1]; [7]
  BF-Viskosität (2,5 rpm): 1000 mPas
  BF-Viskosität (5 rpm): 900 mPas
[1]; [8]
  BF-Viskosität (2,5 rpm): 80 mPas
  BF-Viskosität (5 rpm): 60 mPas
[1]; [9]
  BF-Viskosität (2,5 rpm): 6800 mPas
  BF-Viskosität (5 rpm): 6800 mPas
[1]; [10]
  BF-Viskosität (2,5 rpm): 30400 mPas
  BF-Viskosität (5 rpm): 27800 mPas
[1]; [11]
  BF-Viskosität (2,5 rpm): 60 mPas
  BF-Viskosität (5 rpm): 40 mPas
[1]; [12]
  BF-Viskosität (2,5 rpm): 35200 mPas
  BF-Viskosität (5 rpm): 31000 mPas
[1]; [13]
  BF-Viskosität (2,5 rpm): 19600 mPas
  BF-Viskosität (5 rpm): 19000 mPas
[1]; [14]
  BF-Viskosität (2,5 rpm): 40800 mPas
  BF-Viskosität (5 rpm): 36800 mPas
[1]; [15]
  BF-Viskosität (2,5 rpm): 7400 mPas
  BF-Viskosität (5 rpm): 7200 mPas
[1]; [16]
  BF-Viskosität (2,5 rpm): 46400 mPas
  BF-Viskosität (5 rpm): 40400 mPas
[1]; [17]
  BF-Viskosität (2,5 rpm): 33200 mPas
  BF-Viskosität (5 rpm): 29000 mPas
[1]; [18]
  BF-Viskosität (2,5 rpm): 43200 mPas
  BF-Viskosität (5 rpm): 38800 mPas
[1]; [19]
  BF-Viskosität (2,5 rpm): 4000 mPas
  BF-Viskosität (5 rpm): 3800 mPas
[1]; [20]
  BF-Viskosität (2,5 rpm): 15600 mPas
  BF-Viskosität (5 rpm): 15000 mPas
[1]; [21]
  BF-Viskosität (2,5 rpm): 9200 mPas
  BF-Viskosität (5 rpm): 8700 mPas
[1]; [22]
  BF-Viskosität (2,5 rpm): 27600 mPas
  BF-Viskosität (5 rpm): 25600 mPas
[1]; [23]
  BF-Viskosität (2,5 rpm): 12800 mPas
  BF-Viskosität (5 rpm): 12400 mPas
[2]; [6]
  Aussehen nach 24 h: transparent Gel-flüssig
[2]; [7]
  Aussehen nach 24 h: opaleszent Phasenseparation
[2]; [8]
  Aussehen nach 24 h: weiß Phasenseparation
[2]; [24]
  Aussehen nach 24 h: transparent; also recorded: flüssig
[2]; [25]
  Aussehen nach 24 h: transparent and Gel
[2]; [26]
  Aussehen nach 24 h: Weiß and Flüssig
[2]; Reinigungsformulierung enthaltend Natriumlaurylethersulfat, Dinatriumcocoamphodiacetat, 0,5 % NaCl, +0,5 %
  Aussehen nach 24 h: transparent Gel
[2]; Reinigungsformulierung enthaltend Natriumlaurylethersulfat, Dinatriumcocoamphodiacetat, 0,5 % NaCl, +0,25 %
  Aussehen nach 24 h: transparent Gel-flüssig
[2]; Reinigungsformulierung enthaltend Natriumlaurylethersulfat, Dinatriumcocoamphodiacetat, 0,5 % NaCl, +1 %
  Aussehen nach 24 h: transparent Gel
[2]; Reinigungsformulierung enthaltend Natriumlaurylethersulfat, Dinatriumcocoamphodiacetat, 0,5 % NaCl, +2 %
  Aussehen nach 24 h: opaleszent flüssig
[2]; Reinigungsformulierung enthaltend Natriumlaurylethersulfat, Dinatriumcocoamphodiacetat, 1 % NaCl, +0,5 %
  Aussehen nach 24 h: transparent Gel
[2]; Reinigungsformulierung enthaltend Natriumlaurylethersulfat, Dinatriumcocoamphodiacetat, 1 % NaCl, +0,25 %
  Aussehen nach 24 h: transparent Gel
[2]; Reinigungsformulierung enthaltend Natriumlaurylethersulfat, Dinatriumcocoamphodiacetat, 1 % NaCl, +1 %
  Aussehen nach 24 h: transparent Gel
[2]; Reinigungsformulierung enthaltend Natriumlaurylethersulfat, Dinatriumcocoamphodiacetat, 1 % NaCl, +2 %
  Aussehen nach 24 h: weiß flüssig
[2]; Reinigungsformulierung enthaltend Natriumlaurylethersulfat, Dinatriumcocoamphodiacetat, +0,5 %
  Aussehen nach 24 h: transparent Gel-flüssig
[2]; Reinigungsformulierung enthaltend Natriumlaurylethersulfat, Dinatriumcocoamphodiacetat, +0,25 %
  Aussehen nach 24 h: transparent flüssig
[2]; Reinigungsformulierung enthaltend Natriumlaurylethersulfat, Dinatriumcocoamphodiacetat, +1 %
  Aussehen nach 24 h: transparent Gel
[2]; Reinigungsformulierung enthaltend Natriumlaurylethersulfat, Dinatriumcocoamphodiacetat, +2 %
  Aussehen nach 24 h: opaleszent flüssig
[3]; [6]
  pH: 6
[3]; [7]
  pH: 6
[3]; [8]
  pH: 6,1
[3]; [24]
  pH: 6,3
[3]; [25]
  pH: 6,35
[3]; [26]
  pH: 6,4
[4]; 0,5 %
  h1: 210 mm
  h0: 240 mm
  Stabilität: 88%
[4]; 1 %
  h1: 180 mm
  h0: 215 mm
  Stabilität: 84%
[4]; 5 %
  h1: 175 mm
  h0: 210 mm
  Stabilität: 83%
[5]; +0,5 %
  Aussehen des Schaums nach 1 min.: 2
  Aussehen des Schaums nach 5 min.: 1
  Blasengröße nach 1 min.: 4
  Blasengröße nach 5 min.: 5
[5]; +1 %
  Aussehen des Schaums nach 1 min.: 3
  Aussehen des Schaums nach 5 min.: 1
  Blasengröße nach 1 min.: 3
  Blasengröße nach 5 min.: 5
[5]; +5 %
  Aussehen des Schaums nach 1 min.: 3
  Aussehen des Schaums nach 5 min.: 1
  Blasengröße nach 1 min.: 4
  Blasengröße nach 5 min.: 5
